ChEMBL document CHEMBL6134895, “Strategic Design and Optimization of Umifenovir Analogues: Balancing Antiviral Efficacy and hERG Toxicity against SARS-CoV-2” (J Med Chem, 2025)

Test system: SARS-CoV-2
Experiment: Antiviral activity against SARS CoV-2 assessed as inhibition of viral entry into HEK293T-hACE2 cells pretreated compound with HIV-1-based SARS CoV-2 pseudovirus harboring reporter NanoLuc luciferase gene for 1 hr followed by exposure to HEK293T-hACE2 cells measured after 48 hrs by Nano-Glo luciferase assay
Assay type: functional, organism-based
Conditions: Severe acute respiratory syndrome coronavirus 2

Structure (SMILES)	IC50
Cc1ccc(Cn2c(CSc3c(C)cc(C)cc3C)c(C(=O)NC3CCN(C(C)C)CC3)c3cc(O)c(Br)cc32)cc1	0.17 µM
Cc1ccc(Cn2c(CSc3c(C)cc(C)cc3C)c(C(=O)N3CCC(N4CCOCC4)CC3)c3cc(O)c(Br)cc32)cc1	0.28 µM
CCOC(=O)c1c(CSc2ccccc2)n(C)c2cc(Br)c(O)c(CN(C)C)c12	2.3 µM
